Assays:
[1] = Solubility of the quinone compound in aqueous solution / solvents; assay type: physicochemical
Excerpt: The quinone compound can be applied to the substrate in the form of a solution. The solution can be an aqueous or semi-aqueous solution. The quinone compound can be soluble or semi-soluble in the solution. Depending on the pH of the solution the quinone compound can be soluble or partially soluble. The partially soluble quinone can exist as either suspended crystalline particles, fine particles, colloidal particles, etc. […] This compound can exist in solution as particles, crystals, colloids, etc. In some embodiments, the semi-aqueous or non-aqueous solutions containing suitable particles, crystals, colloids, etc. can be used to achieve penetration of a quinone compound into and under the surface of a substrate.
(§1) A power pole made from southern yellow pine is treated with a sodium salt of 9,10 dihyroxyanthracene (also known as AHQ or anthrahydroquinone) to render the pole resistant to pest and/or fungal damage. The sodium salt of 9,10 dihyroxyanthracene is stable in an oxygen free and high pH environment (e.g., above pH 11). In the high pH solution, the compound has a solubility of around 10% (wt/v). A 10% solution of AHQ is prepared in an aqueous solution having a pH of about 12. The pole is soaked in the bath of 10% AHQ for about 20-30 minutes at 70-80° C. with little or no air exposure. A portion of the AHQ penetrates into the top layer of the pole. The depth of penetration can range from 1 mm to 200 mm.
(§2) After soaking, the pole is transferred to a water tank where the surface would be neutralized. The water having a nominal pH of about 7. Alternatively, the pole is dried in air without rinsing. AHQ is unstable in the presence of air (e.g., oxygen) unless it is maintained in a high pH solution. If exposed to a lower pH or air (e.g., oxygen), the AHQ can be converted to 9,10 anthraquinone (also known as AQ). AQ is insoluble in almost every solvent including water. Therefore, AQ precipitates out of solution and becomes trapped in the top layer of the pole. AQ forms both on the surface and inside the wood fibers of the upper layers of the pole. This outer layer of pole is now both termite and woodpecker proof. Because anthraquinones can be effective fungicides, the pole is now also fungi proof.

[2] = system: Pileated woodpeckers; assay: Caged Pileated woodpecker trials (two-choice then one-choice test) with treated and untreated utility pole sections; assay type: in vivo, Pileated woodpecker (Dryocopus pilealus); details: poles treated with AHQ versus untreated poles; FIGS. 2-4
Protocol: Overview. A series of caged Pileated woodpecker trials are conducted using power pole segments both untreated and treated with a quinone. The treatment segments contain the quinone compound in a range of concentrations. The quinone compound is also applied by either painting or soaking. The quinone compound is applied in a high pH solution (i.e., in a water soluble form). Thereafter, the segments are treated with a lower pH solution to convert the quinone to a water insoluble form. The bird's preference to nest building excavation for each segment is measured. Both the soaked and painted segments show lower incidence of nesting evacuation. […]
The initial placement of the treated and the untreated poles in each enclosure was randomly determined. […] At the beginning of each test day, starting on day 2 (0800), woodpecker damage to each pole was measured by collecting and weighing the wood chips that were removed. […] The camera recorded woodpecker activity on poles for during the first two hours of each day during the test period. […]
The weight of wood chips removed by Pileated woodpeckers follow a three-factor repeated measures design, where observations are repeated on each bird for all three factors: treatment (chemical) time (pre and post-treatment), and pole (control and treated)). All data was analyzed as mixed liner models. […]

[3] = Stability of AHQ towards air (oxygen) and pH; assay type: physicochemical
Protocol: as §1
as §2, with “This outer layer of pole is now both termite and woodpecker proof. Because anthraquinones can be effective fungicides, the pole is now also fungi proof.” left out

In the case of [Na+].[Na+].[O-]c1c2ccccc2c([O-])c2ccccc12 [AHQ, sodium salt of 9,10 dihyroxyanthracene], the “solubility in aqueous solutions” value ([1]; high pH (e.g., pH 11 or more)) is reported as “readily soluble”, the solubility ([1]; in the high pH solution (e.g., above pH 11)) is reported as “around 10 % (wt/v)” and the “weight of wood chips removed from poles” value [2] is reported as “surprisingly less than the weight of wood chips removed from untreated poles”. The stability ([3]; oxygen free and high pH environment (e.g., above pH 11)) was “stable” and the stability ([3]; presence of air (e.g., oxygen), unless maintained in a high pH solution) was “unstable”.
For O=C1c2ccccc2C(=O)c2ccccc21 [AQ, 9,10 anthraquinone], the solubility in solvents [1] was “insoluble”.
For Oc1c2ccccc2c(O)c2ccccc12 [9,10-anthrahydroquinone], the “solubility in aqueous solutions” value ([1]; slightly basic or neutral pH values) was “only slightly soluble or insoluble”.

— patent US20170298209A1, “USE OF A QUINONE COMPOUND IN BUILDING MATERIALS” (Arkion Life Sciences, LLC, priority 2014, published 2017)
